{"source": "patent US8410302B2", "about": "“Methoxyimino compounds and fungicide composition comprising same” (Kyung Nong Corporation, priority 2007, dated 2013)", "key": {"[1]": {"tested_on": "Pyricularia oryzae Carvara KA301", "assay": "whole plant or invertebrate", "assay_type": "in vivo", "conditions": "for pest or weed control at 2 ppm / pest or weed control at 10 ppm / pest or weed control at 50 ppm / pest or weed control at 100 ppm: Pyricularia oryzae, read-out: RCB control value (C.V.)"}, "Botrytis cinerae": {"tested_on": "Botrytis cinerae", "assay": "Fungicidal activity against cucumber gray mold rot (CGM) disease, control value", "assay_type": "in vivo", "experimental": "Botrytis cinerae, which was isolated from cucumber infected thereby, was inoculated on a potato agar medium (PEC) and cultured under a 12L/12D cycle at 25° C. for 15 days to form spore. The spores were scraped, filtered through a gauze and then suspended in Potato Dextrose broth at a concentration of 1×10^6 spore/ml. The spore suspension was sprayed on a cucumber plant having one leaf. The cucumber plant was held in a humidified room at 20° C. for 3 days. L.A. on a leaf was measured to calculate a C.V."}, "Phytophthora infestans": {"tested_on": "Phytophthora infestans", "assay": "whole plant or invertebrate", "assay_type": "in vivo", "conditions": "for pest or weed control at 2 ppm / pest or weed control at 10 ppm / pest or weed control at 50 ppm / pest or weed control at 100 ppm: Phytophthora infestans, in Solanum lycopersicum, read-out: TLB control value (C.V.)"}, "Puccinia recondita": {"tested_on": "Puccinia recondita", "assay": "Fungicidal activity against wheat leaf rust (WLR) disease, control value", "assay_type": "in vivo", "conditions": "for pest or weed control at 2 ppm / pest or weed control at 10 ppm / pest or weed control at 50 ppm / pest or weed control at 100 ppm: read-out: WLR control value (C.V.)"}, "Erysiphae graminis": {"tested_on": "Erysiphae graminis", "assay": "Fungicidal activity against barley powdery mildew (BPM) disease, control value", "assay_type": "in vivo", "conditions": "for pest or weed control at 2 ppm / pest or weed control at 10 ppm / pest or weed control at 50 ppm / pest or weed control at 100 ppm: 168 h, read-out: BPM control value (C.V.)"}, "Rhizoctonia solani AG-1": {"tested_on": "Rhizoctonia solani AG-1", "assay": "Fungicidal activity against rice sheath blight (RSB) disease, control value", "conditions": "for pest or weed control at 2 ppm / pest or weed control at 10 ppm / pest or weed control at 50 ppm / pest or weed control at 100 ppm: Rhizoctonia solani, AG1, in Oryza sativa, read-out: RSB control value (C.V.)"}, "[2]": {"conditions": "Botrytis, read-out: CGM control value (C.V.)"}}, "note": "Like-named read-outs stand apart in the source and are kept apart here.", "data": [{"smiles": "CO/N=C(/C(=O)OC)c1ccccc1COc1ccc(C=C(Cl)Cl)cc1Cl", "note": "[Example 39, methyl-(E)-2-(2-((2-chloro-4-(2,2-dichlorovinyl)phenoxy)methyl)phenyl)-2-methoxyiminoacetate]", "values": [{"measurement": "pest or weed control at 2 ppm", "setting": "[1]", "result": 100, "unit": "%"}, {"measurement": "pest or weed control at 10 ppm", "setting": "[1]", "result": 100, "unit": "%"}, {"measurement": "pest or weed control at 50 ppm", "setting": "[1]", "result": 100, "unit": "%"}, {"measurement": "pest or weed control at 100 ppm", "setting": "[1]", "result": 100, "unit": "%"}, {"measurement": "pest or weed control at 100 ppm", "setting": "Botrytis cinerae; Botrytis, cucumber gray mold rot, read-out: CGM control value (C.V.)", "result": 75, "unit": "%"}, {"measurement": "pest or weed control at 2 ppm", "setting": "Phytophthora infestans", "result": 100, "unit": "%"}, {"measurement": "pest or weed control at 10 ppm", "setting": "Phytophthora infestans", "result": 100, "unit": "%"}, {"measurement": "pest or weed control at 50 ppm", "setting": "Phytophthora infestans", "result": 100, "unit": "%"}, {"measurement": "pest or weed control at 100 ppm", "setting": "Phytophthora infestans", "result": 100, "unit": "%"}, {"measurement": "pest or weed control at 2 ppm", "setting": "Puccinia recondita; 2 ppm, wheat leaf rust", "result": 100, "unit": "%"}, {"measurement": "pest or weed control at 10 ppm", "setting": "Puccinia recondita; 10 ppm, wheat leaf rust", "result": 100, "unit": "%"}, {"measurement": "pest or weed control at 50 ppm", "setting": "Puccinia recondita; 50 ppm, wheat leaf rust", "result": 100, "unit": "%"}, {"measurement": "pest or weed control at 100 ppm", "setting": "Puccinia recondita; wheat leaf rust", "result": 100, "unit": "%"}, {"measurement": "pest or weed control at 2 ppm", "setting": "Erysiphae graminis; Hordeum vulgare, 2 ppm, barley powdery mildew", "result": 100, "unit": "%"}, {"measurement": "pest or weed control at 10 ppm", "setting": "Erysiphae graminis; Hordeum vulgare, 10 ppm, barley powdery mildew", "result": 100, "unit": "%"}, {"measurement": "pest or weed control at 50 ppm", "setting": "Erysiphae graminis; Hordeum vulgare, 50 ppm, barley powdery mildew", "result": 100, "unit": "%"}, {"measurement": "pest or weed control at 100 ppm", "setting": "Erysiphae graminis; Hordeum vulgare, barley powdery mildew", "result": 100, "unit": "%"}, {"measurement": "pest or weed control at 2 ppm", "setting": "Rhizoctonia solani AG-1", "result": 100, "unit": "%"}, {"measurement": "pest or weed control at 10 ppm", "setting": "Rhizoctonia solani AG-1", "result": 100, "unit": "%"}, {"measurement": "pest or weed control at 50 ppm", "setting": "Rhizoctonia solani AG-1", "result": 100, "unit": "%"}, {"measurement": "pest or weed control at 100 ppm", "setting": "Rhizoctonia solani AG-1", "result": 100, "unit": "%"}]}, {"smiles": "CO/N=C(/C(=O)OC)c1ccccc1COc1ccc(F)cc1C=C(Br)Br", "note": "[Example 79, methyl-(E)-2-(2-((2-(2,2-dibromovinyl)-4-fluorophenoxy)methyl)phenyl)-2-methoxyiminoacetate]", "values": [{"measurement": "pest or weed control at 2 ppm", "setting": "[1]", "result": 80, "unit": "%"}, {"measurement": "pest or weed control at 10 ppm", "setting": "[1]", "result": 98, "unit": "%"}, {"measurement": "pest or weed control at 50 ppm", "setting": "[1]", "result": 100, "unit": "%"}, {"measurement": "pest or weed control at 100 ppm", "setting": "[1]", "result": 100, "unit": "%"}, {"measurement": "pest or weed control at 100 ppm", "setting": "Botrytis cinerae; [2]", "result": 40, "unit": "%"}, {"measurement": "pest or weed control at 2 ppm", "setting": "Phytophthora infestans", "result": 70, "unit": "%"}, {"measurement": "pest or weed control at 10 ppm", "setting": "Phytophthora infestans", "result": 90, "unit": "%"}, {"measurement": "pest or weed control at 50 ppm", "setting": "Phytophthora infestans", "result": 98, "unit": "%"}, {"measurement": "pest or weed control at 100 ppm", "setting": "Phytophthora infestans", "result": 100, "unit": "%"}, {"measurement": "pest or weed control at 2 ppm", "setting": "Puccinia recondita; Puccinia recondita, 2 ppm", "result": 95, "unit": "%"}, {"measurement": "pest or weed control at 10 ppm", "setting": "Puccinia recondita; Puccinia recondita, 10 ppm", "result": 100, "unit": "%"}, {"measurement": "pest or weed control at 50 ppm", "setting": "Puccinia recondita; Puccinia recondita, 50 ppm", "result": 100, "unit": "%"}, {"measurement": "pest or weed control at 100 ppm", "setting": "Puccinia recondita; Puccinia recondita", "result": 100, "unit": "%"}, {"measurement": "pest or weed control at 2 ppm", "setting": "Erysiphae graminis; 2 ppm", "result": 90, "unit": "%"}, {"measurement": "pest or weed control at 10 ppm", "setting": "Erysiphae graminis; 10 ppm", "result": 100, "unit": "%"}, {"measurement": "pest or weed control at 50 ppm", "setting": "Erysiphae graminis; 50 ppm", "result": 100, "unit": "%"}, {"measurement": "pest or weed control at 100 ppm", "setting": "Erysiphae graminis", "result": 100, "unit": "%"}, {"measurement": "pest or weed control at 2 ppm", "setting": "Rhizoctonia solani AG-1", "result": 85, "unit": "%"}, {"measurement": "pest or weed control at 10 ppm", "setting": "Rhizoctonia solani AG-1", "result": 98, "unit": "%"}, {"measurement": "pest or weed control at 50 ppm", "setting": "Rhizoctonia solani AG-1", "result": 100, "unit": "%"}, {"measurement": "pest or weed control at 100 ppm", "setting": "Rhizoctonia solani AG-1", "result": 100, "unit": "%"}]}, {"smiles": "CNC(=O)/C(=N/OC)c1ccccc1COc1cccc(C=C(Br)Br)c1Cl", "note": "[Example 68, (E)-2-(2-((3-(2,2-dibromovinyl)-2-chlorophenoxy)methyl)phenyl)-2-methoxyimino-N-methylacetamide]", "values": [{"measurement": "pest or weed control at 2 ppm", "setting": "[1]", "result": 100, "unit": "%"}, {"measurement": "pest or weed control at 10 ppm", "setting": "[1]", "result": 100, "unit": "%"}, {"measurement": "pest or weed control at 50 ppm", "setting": "[1]", "result": 100, "unit": "%"}, {"measurement": "pest or weed control at 100 ppm", "setting": "[1]", "result": 100, "unit": "%"}, {"measurement": "pest or weed control at 50 ppm", "setting": "Botrytis cinerae; Botrytis, 50 ppm, read-out: CGM control value (C.V.)", "result": 20, "unit": "%"}, {"measurement": "pest or weed control at 100 ppm", "setting": "Botrytis cinerae; [2]", "result": 70, "unit": "%"}, {"measurement": "pest or weed control at 2 ppm", "setting": "Phytophthora infestans", "result": 100, "unit": "%"}, {"measurement": "pest or weed control at 10 ppm", "setting": "Phytophthora infestans", "result": 100, "unit": "%"}, {"measurement": "pest or weed control at 50 ppm", "setting": "Phytophthora infestans", "result": 100, "unit": "%"}, {"measurement": "pest or weed control at 100 ppm", "setting": "Phytophthora infestans", "result": 100, "unit": "%"}, {"measurement": "pest or weed control at 2 ppm", "setting": "Puccinia recondita; Puccinia recondita, 2 ppm", "result": 100, "unit": "%"}, {"measurement": "pest or weed control at 10 ppm", "setting": "Puccinia recondita; Puccinia recondita, 10 ppm", "result": 100, "unit": "%"}, {"measurement": "pest or weed control at 50 ppm", "setting": "Puccinia recondita; Puccinia recondita, 50 ppm", "result": 100, "unit": "%"}, {"measurement": "pest or weed control at 100 ppm", "setting": "Puccinia recondita; Puccinia recondita", "result": 100, "unit": "%"}, {"measurement": "pest or weed control at 2 ppm", "setting": "Erysiphae graminis; 2 ppm", "result": 100, "unit": "%"}, {"measurement": "pest or weed control at 10 ppm", "setting": "Erysiphae graminis; 10 ppm", "result": 100, "unit": "%"}, {"measurement": "pest or weed control at 50 ppm", "setting": "Erysiphae graminis; 50 ppm", "result": 100, "unit": "%"}, {"measurement": "pest or weed control at 100 ppm", "setting": "Erysiphae graminis", "result": 100, "unit": "%"}, {"measurement": "pest or weed control at 2 ppm", "setting": "Rhizoctonia solani AG-1", "result": 100, "unit": "%"}, {"measurement": "pest or weed control at 10 ppm", "setting": "Rhizoctonia solani AG-1", "result": 100, "unit": "%"}, {"measurement": "pest or weed control at 50 ppm", "setting": "Rhizoctonia solani AG-1", "result": 100, "unit": "%"}, {"measurement": "pest or weed control at 100 ppm", "setting": "Rhizoctonia solani AG-1", "result": 100, "unit": "%"}]}, {"smiles": "CO/C=C(/C(=O)OC)c1ccccc1Oc1cc(Oc2ccccc2C#N)ncn1", "note": "[Azoxystrobin, reference compound]", "values": [{"measurement": "RCB control value (C.V.)", "setting": "[1]; 0.4 ppm", "result": 30, "unit": "%"}, {"measurement": "RCB control value (C.V.)", "setting": "[1]; 2 ppm", "result": 90, "unit": "%"}, {"measurement": "RCB control value (C.V.)", "setting": "[1]; 10 ppm", "result": 100, "unit": "%"}, {"measurement": "RCB control value (C.V.)", "setting": "[1]; 50 ppm", "result": 100, "unit": "%"}, {"measurement": "CGM control value (C.V.)", "setting": "Botrytis cinerae; 50 ppm", "result": 40, "unit": "%"}, {"measurement": "TLB control value (C.V.)", "setting": "Phytophthora infestans; 0.4 ppm", "result": 50, "unit": "%"}, {"measurement": "TLB control value (C.V.)", "setting": "Phytophthora infestans; 2 ppm", "result": 90, "unit": "%"}, {"measurement": "TLB control value (C.V.)", "setting": "Phytophthora infestans; 10 ppm", "result": 98, "unit": "%"}, {"measurement": "TLB control value (C.V.)", "setting": "Phytophthora infestans; 50 ppm", "result": 100, "unit": "%"}, {"measurement": "WLR control value (C.V.)", "setting": "Puccinia recondita; 0.4 ppm", "result": 95, "unit": "%"}, {"measurement": "WLR control value (C.V.)", "setting": "Puccinia recondita; 2 ppm", "result": 100, "unit": "%"}, {"measurement": "WLR control value (C.V.)", "setting": "Puccinia recondita; 10 ppm", "result": 100, "unit": "%"}, {"measurement": "WLR control value (C.V.)", "setting": "Puccinia recondita; 50 ppm", "result": 100, "unit": "%"}, {"measurement": "BPM control value (C.V.)", "setting": "Erysiphae graminis; 0.4 ppm", "result": 95, "unit": "%"}, {"measurement": "BPM control value (C.V.)", "setting": "Erysiphae graminis; 2 ppm", "result": 100, "unit": "%"}, {"measurement": "BPM control value (C.V.)", "setting": "Erysiphae graminis; 10 ppm", "result": 100, "unit": "%"}, {"measurement": "BPM control value (C.V.)", "setting": "Erysiphae graminis; 50 ppm", "result": 100, "unit": "%"}, {"measurement": "RSB control value (C.V.)", "setting": "Rhizoctonia solani AG-1; 0.4 ppm", "result": 67, "unit": "%"}, {"measurement": "RSB control value (C.V.)", "setting": "Rhizoctonia solani AG-1; 2 ppm", "result": 98, "unit": "%"}, {"measurement": "RSB control value (C.V.)", "setting": "Rhizoctonia solani AG-1; 10 ppm", "result": 100, "unit": "%"}, {"measurement": "RSB control value (C.V.)", "setting": "Rhizoctonia solani AG-1; 50 ppm", "result": 100, "unit": "%"}]}]}
